Results from patent US7935815B2, “Imidazoyl pyridine compounds and salts thereof” (Eisai R&D Management Co., Ltd., priority 2007, dated 2011).
pIC50: −log10 of the molar value.

Each compound was assayed on Aβ42 production (assay: Quantification of Aβ peptide in culture of neurons from rat fetus brain (Aβ ELISA)). Conditions: Rattus norvegicus, Neuron, 72 h, rat primary neuronal culture (embryonic day 18 Wistar rat cerebral cortex); cultured three days after addition of compound; Aβx-42 ELISA of the medium; read-out: Aβ42 production reducing effect IC50.
Format: cell-based
Protocol: Quantification of Aβ Peptide in Culture of Neurons from Rat Fetus Brain
(1) Rat Primary Neuronal Culture
Primary neuronal cultures were prepared from the cerebral cortex of embryonic day 18 Wistar rats (Charles River Japan, Yokohama, Japan). Specifically, the embryos were aseptically removed from pregnant rats under ether anesthesia. The brain was isolated from the embryo and immersed in an ice-cold L-15 medium (Invitrogen Corp. Cat #11415-064, Carlsbad, Calif., USA, or SIGMA L1518, for example). The cerebral cortex was collected from the isolated brain under a stereoscopic microscope. The cerebral cortex fragments collected were enzymatically treated in an enzyme solution containing 0.25% trypsin (Invitrogen Corp. Cat #15050-065, Carlsbad, Calif., USA) and 0.01% DNase (Sigma D5025, St. Louis, Mo., USA) at 37° C. for 30 minutes to disperse the cells. Here, the enzymatic reaction was stopped by adding inactivated horse serum to the solution. The enzymatically treated solution was centrifuged at 1,500 rpm for five minutes to remove the supernatant. 5 to 10 ml of a medium was added to the resulting cell mass. Neurobasal medium (Invitrogen Corp. Cat #21103-049, Carlsbad, Calif., USA) supplemented with 2% B27 supplement (Invitrogen Corp. Cat #17504-044, Carlsbad, Calif., USA), 25 μM 2-mercaptoethanol (2-ME, WAKO Cat #139-06861, Osaka, Japan), 0.5 mM L-glutamine (Invitrogen Corp. Cat #25030-081, Carlsbad, Calif., USA), and Antibiotics-Antimycotics (Invitrogen Corp. Cat #15240-062, Carlsbad, Calif., USA) was used as the medium (Neurobasal/B27/2-ME). However, the above Neurobasal medium not supplemented with 2-ME (Neurobasal/B27) was used for the assay. The cells were redispersed by mild pipetting of the cell mass to which the medium was added. The cell dispersion was filtered through a 40-μm nylon mesh (Cell Strainer, Cat #35-2340, Becton Dickinson Labware, Franklin Lakes, N.J., USA) to remove the remaining cell mass, and thus a neuronal cell suspension was obtained. The neuronal cell suspension was diluted with the medium and then plated in a volume of 100 μl/well at an initial cell density of 5×10^5 cells/cm^2 in a 96-well polystyrene culture plate pre-coated with poly-L or D-lysine (Falcon Cat #35-3075, Becton Dickinson Labware, Franklin Lakes, N.J., USA coated with poly-L-lysine using the method shown below, or BIOCOAT™ cell environments Poly-D-lysine cell ware 96-well plate, Cat #35-6461, Becton Dickinson Labware, Franklin Lakes, N.J., USA). Poly-L-lysine coating was carried out as follows. 100 μg/ml of a poly-L-lysine (SIGMA P2636, St. Louis, Mo., USA) solution was aseptically prepared with a 0.15 M borate buffer (pH 8.5). 100 μl/well of the solution was added to the 96-well polystyrene culture plate and incubated at room temperature for one or more hours or at 4° C. overnight or longer. The coated 96-well polystyrene culture plate was washed with sterile water four or more times, and then dried or rinsed with, for example, sterile PBS or medium, and used for cell plating. The plated cells were cultured in the culture plate at 37° C. in 5% CO2-95% air for one day. Then, the total amount of the medium was replaced with a fresh Neurobasal™/B27/2-ME medium, and then the cells were cultured for further three days.
The drug was added to the culture plate on Day 4 of culture as follows. The total amount of the medium was removed from the wells, and 180 μl/well of Neurobasal medium not containing 2-ME and containing 2% B-27 (Neurobasal/B27) was added thereto. A solution of the test compound in dimethyl sulfoxide (hereinafter abbreviated as DMSO) was diluted with Neurobasal/B27 at 10-fold of the final concentration. 20 μl/well of the dilution was added to and sufficiently mixed with the medium. The final DMSO concentration was 1% or less. Only DMSO was added to the control group.
The cells were cultured for three days after addition of the compound, and the total amount of the medium was collected. […]

Point of comparison: COc1nc(/C=C/c2nc3n(n2)CCCC3c2ccc(F)cc2)ccc1-n1cnc(C)c1 (single isomer, unassigned) [Example 173, (−)-8-(4-fluorophenyl)-2-{(E)-2-[6-methoxy-5-(4-methyl-1H-imidazol-1-yl)pyridin-2-yl]vinyl}-5,6,7,8-tetrahydro-[1,2,4]triazolo[1,5-a]pyridine], pIC50 7.43. Against it:
- CCCCC(O)c1ccc([C@H]2CCCn3nc(/C=C/c4ccc(-n5cnc(C)c5)c(OC)c4)nc32)cc1 (single isomer, unassigned) [Example 19, 1-{4-{2-{(E)-2-[3-methoxy-4-(4-methyl-1H-imidazol-1-yl)phenyl]vinyl}-5,6,7,8-tetrahydro[1,2,4]triazolo[1,5-a]pyridin-8-yl}phenyl}pentan-1-ol] — within 0.2 log units, 7.37
- COc1cc(/C=C/c2nc3n(n2)CCC[C@]3(O)c2ccc(C(C)C)cc2)ccc1-n1cnc(C)c1 (single isomer, unassigned) [Example 55, (−)-8-(4-isopropylphenyl)-2-{(E)-2-[3-methoxy-4-(4-methyl-1H-imidazol-1-yl)phenyl]vinyl}-5,6,7,8-tetrahydro[1,2,4]triazolo[1,5-a]pyridin-8-ol] — within 0.2 log units, 7.55
- COc1cc(/C=C/c2nc3n(n2)CCCC3(O)c2ccccc2F)ccc1-n1cnc(C)c1 (single isomer, unassigned) [Example 59, (−)-8-(2-fluorophenyl)-2-{(E)-2-[3-methoxy-4-(4-methyl-1H-imidazol-1-yl)phenyl]vinyl}-5,6,7,8-tetrahydro-[1,2,4]triazolo[1,5-a]pyridin-8-ol] — within 0.2 log units, 7.35
- COc1cc(/C=C/c2nc3n(n2)CCC[C@]3(C#N)c2cc(F)c(F)c(F)c2)ccc1-n1cnc(C)c1 (single isomer, unassigned) [Example 72, (−)-2-{(E)-2-[3-methoxy-4-(4-methyl-1H-imidazol-1-yl)phenyl]vinyl}-8-(3,4,5-trifluorophenyl)-5,6,7,8-tetrahydro[1,2,4]triazolo[1,5-a]pyridine-8-carbonitrile] — within 0.2 log units, 7.59
- COc1cc(/C=C(\F)c2nc3n(n2)CCC[C@]3(O)c2cc(F)c(F)c(F)c2)ccc1-n1cnc(C)c1 (single isomer, unassigned) [Example 94, (−)-2-{(Z)-1-fluoro-2-[3-methoxy-4-(4-methyl-1H-imidazol-1-yl)phenyl]vinyl}-8-(3,4,5-trifluorophenyl)-5,6,7,8-tetrahydro[1,2,4]triazolo[1,5-a]pyridin-8-ol] — within 0.2 log units, 7.28
- COc1cc(/C=C/c2nc3n(n2)CCC[C@]3(O)c2cc(F)c(F)c(F)c2)c(F)cc1-n1cnc(C)c1 (single isomer, unassigned) [Example 96, (−)-2-{(E)-2-[2-fluoro-5-methoxy-4-(4-methyl-1H-imidazol-1-yl)phenyl]vinyl}-8-(3,4,5-trifluorophenyl)-5,6,7,8-tetrahydro[1,2,4]triazolo[1,5-a]pyridin-8-ol] — 0.23 log units lower, 7.20
- COc1cc(/C=C/c2nc3n(n2)CCC[C@H]3C2CCCCC2)ccc1-n1cnc(C)c1 (single isomer, unassigned) [Example 114, (−)-8-cyclohexyl-2-{(E)-2-[3-methoxy-4-(4-methyl-1H-imidazol-1-yl)phenyl]vinyl}-5,6,7,8-tetrahydro[1,2,4]triazolo[1,5-a]pyridine] — within 0.2 log units, 7.29
- COc1cc(/C=C/c2nc3n(n2)CCC[C@@H]3C2CCOCC2)ccc1-n1cnc(C)c1 (single isomer, unassigned) [Example 116, (−)-2-{(E)-2-[3-methoxy-4-(4-methyl-1H-imidazol-1-yl)phenyl]vinyl}-8-(tetrahydropyran-4-yl)-5,6,7,8-tetrahydro[1,2,4]triazolo[1,5-a]pyridine] — 0.67 log units lower, 6.76
- COc1cc(/C=C/c2nc3n(n2)CCC[C@@H]3[C@H]2CCCN2Cc2ccccc2)ccc1-n1cnc(C)c1 (single isomer, unassigned) [Example 133, (−)-8-(1-benzylpyrrolidin-2-yl)-2-{(E)-2-[3-methoxy-4-(4-methyl-1H-imidazol-1-yl)phenyl]vinyl}-5,6,7,8-tetrahydro[1,2,4]triazolo[1,5-a]pyridine] — 0.24 log units lower, 7.19
- COc1cc(/C=C/c2nc3n(n2)CCC3c2ccccc2)ccc1-n1cnc(C)c1 (single isomer, unassigned) [Example 141, (−)-2-{(E)-2-[3-methoxy-4-(4-methyl-1H-imidazol-1-yl)phenyl]vinyl}-7-phenyl-6,7-dihydro-5H-pyrrolo[1,2-b][1,2,4]triazole] — within 0.2 log units, 7.44
- COc1nc(/C=C/c2nc3n(n2)CCC[C@H]3c2cc(F)c(F)c(F)c2)ccc1-n1cnc(C)c1 (single isomer, unassigned) [Example 169, (−)-2-{(E)-2-[6-methoxy-5-(4-methyl-1H-imidazol-1-yl)pyridin-2-yl]vinyl}-8-(3,4,5-trifluorophenyl)-5,6,7,8-tetrahydro-[1,2,4]triazolo[1,5-a]pyridine] — 0.23 log units higher, 7.66
- COc1nc(/C=C/c2nc3n(n2)CCCC3c2ccc(F)c(F)c2)ccc1-n1cnc(C)c1 (single isomer, unassigned) [Example 171, (−)-8-(3,4-difluorophenyl)-2-{(E)-2-[6-methoxy-5-(4-methyl-1H-imidazol-1-yl)pyridin-2-yl]vinyl}-5,6,7,8-tetrahydro-[1,2,4]triazolo[1,5-a]pyridine] — 0.34 log units higher, 7.77
- COc1nc(/C=C/c2nc3n(n2)CCC[C@@H]3c2ccc(F)c(Cl)c2)ccc1-n1cnc(C)c1 (single isomer, unassigned) [Example 175, (−)-8-(3-chloro-4-fluorophenyl)-2-{(E)-2-[6-methoxy-5-(4-methyl-1H-imidazol-1-yl)pyridin-2-yl]vinyl}-5,6,7,8-tetrahydro-[1,2,4]triazolo[1,5-a]pyridine] — within 0.2 log units, 7.42
- COc1nc(/C=C/c2nc3n(n2)CCC[C@@H]3c2cc(F)c(F)cc2F)ccc1-n1cnc(C)c1 (single isomer, unassigned) [Example 179, (−)-8-(2,4,5-trifluorophenyl)-2-{(E)-2-[6-methoxy-5-(4-methyl-1H-imidazol-1-yl)pyridin-2-yl]vinyl}-5,6,7,8-tetrahydro[1,2,4]triazolo[1,5-a]pyridine] — 0.23 log units higher, 7.66
- COc1nc(/C=C/c2nc3n(n2)CCC[C@@H]3c2cc(F)ccc2F)ccc1-n1cnc(C)c1 (single isomer, unassigned) [Example 183, (−)-8-(2,5-difluorophenyl)-2-{(E)-2-[6-methoxy-5-(4-methyl-1H-imidazol-1-yl)pyridin-2-yl]vinyl}-5,6,7,8-tetrahydro[1,2,4]triazolo[1,5-a]pyridine] — within 0.2 log units, 7.32
- COc1nc(/C=C/c2nc3n(n2)CCC[C@H]3c2ccc(F)cc2Br)ccc1-n1cnc(C)c1 (single isomer, unassigned) [Example 185, (−)-8-(2-bromo-4-fluorophenyl)-2-{(E)-2-[6-methoxy-5-(4-methyl-1H-imidazol-1-yl)pyridin-2-yl]vinyl}-5,6,7,8-tetrahydro-[1,2,4]triazolo[1,5-a]pyridine] — within 0.2 log units, 7.47
- COc1nc(/C=C/c2nc3n(n2)CCC[C@H]3c2ccc(F)cc2Cl)ccc1-n1cnc(C)c1 (single isomer, unassigned) [Example 187, (−)-8-(2-chloro-4-fluorophenyl)-2-{(E)-2-[6-methoxy-5-(4-methyl-1H-imidazol-1-yl)pyridin-2-yl]vinyl}-5,6,7,8-tetrahydro-[1,2,4]triazolo[1,5-a]pyridine] — within 0.2 log units, 7.42
